Test results reported in US9149492B2, “Method for selectively inhibiting ACAT1 in the treatment of alzheimer's disease” (Trustees of Dartmouth College, priority 2008, dated 2015).
Peptide text beside a SMILES is read from it.

Experiments:
[1] = tested on: hippocampal neurons from A1+/Alz mice; assay: 24SOH treatment of hippocampal neurons, hAPP and HMGR content; type: cell-based, mouse
Procedure: Hippocampal neurons were isolated from A1+/Alz and A1−/Alz mice at postnatal day 5 according to standard protocols (Brewer (1997) J. Neurosci. Methods 71:143-155; Price & Brewer (2001) In Protocols for Neural Cell Culture. Fedoroff & Richardson, editors. Totowa, N.J.: Humana Press, Inc. 255-264). Cells were seeded in 6-well dishes in triplicates at 300,000 cells/well, and grown in 3 ml/well Neurobasal A medium with 1×B27, 0.5 mM L-Gln and 5 ng/ml FGF for 14 days. Half of the medium was replaced with […] fresh media once every 7 days. Forty-eight hours after the second media replacement, 50 μCi of [^3H] sodium acetate (100 mCi/mmol) in PBS was added per well for 3 hours. Lipids in cells and in media were extracted, saponified, and analyzed by using the same TLC system described herein. To minimize sterol oxidation, samples were protected from light and heat during lipid extraction, and were analyzed without storage. To improve separation, after sample loading, the TLC plate was placed under vacuum for 30 minutes prior to chromatography. ^3H-labeled sterol bands were identified based on iodine staining of unlabeled sterols added to samples prior to lipid extraction. Rf values: lanosterol, 0.5; cholesterol, 0.38; 24SOH, 0.2. The bands were scraped off and counted. For each labeled sterol, the counts present in cells and in media were added to calculate the synthesis rate for that sterol. Cholesterol esterification in intact cells was conducted according to established methods (Chang, et al. (1986) Biochemistry 25:1693-1699); the ^3H-oleate pulse time was 3 hours.
To test this, hippocampal neurons from A1+/Alz mice were treated with 24SOH, and the hAPP protein content and the HMGR protein content were monitored in parallel.

[2] = tested on: WT or A1-microglia; assay: Pulse-chase of intracellular oAβ42 degradation in microglia with lysosomal inhibitors; type: cell-based, mouse; conditions: pre-incubation with inhibitor, 0.5 μM oAβ 30 minutes, 6 hours chase
Procedure: WT or A1-microglia were pretreated with DMSO only; with bafilomycin A1 (BafA1), a lysosomal v-ATPase inhibitor (250 nM); with Ac-LVK-CHO, a cell permeable cathepsin B inhibitor (CapB I) at 1 μM; or with pepstatin A methyl ester, a cell permeable aspartyl peptidase inhibitor at 25 μM, for 60 minutes. Cells with or without the inhibitors were further incubated with 0.5 μM oAβ for 30 minutes. Cells were washed with pre-warmed PBS (twice) and pre-warmed medium (once) and then further incubated in fresh serum-free DMEM/F-12 (50:50) for 6 hours. At the end of incubation, cells were washed with PBS twice and lysed with 1% SDS containing a protease inhibitor cocktail. Intracellular oAβ levels were examined by ELISA. The values were normalized by cellular protein contents. The data are averages of 3-4 independent experiments. (mean±SEM, n.s. not significant, *p<0.05, p<0.01, ***p<0.001).
Pulse-chase of oAβ42 was also carried out (FIG. 4A) and the fate of oAβ42 was monitored via an ELISA assay.

[3] = tested on: AD mice; conditions: in vivo, cited from earlier work
[4] = tested on: transgenic mice expressing human APP(751) containing the London (V717I) and Swedish (K670M/N671L) mutations; conditions: cited from earlier work
[5] = tested on: WT microglia; assay: Oligomeric Aβ clearance from medium by microglia; type: cell-based, mouse; conditions: 1 μM pretreatment 24 hours, then 0.5 μM oAβ 18 hours
Procedure: WT or A1-microglia were treated with K604 at 1 μM in DMEM/F-12 (50:50) with 10% FBS for 24 hours. Control (Veh) or K604-treated microglia were subsequently incubated with 0.5 μM oAβ in serum-free DMEM/F-12 (50:50) containing 10 μg/ml BSA for 18 hours. At the end of incubation, the media were collected and the residual oAβ levels were detected by western blot analysis. Quantification was performed with image J software (mean±SEM, ***p<0.001).
Primary microglia from normal (WT) and Acat1-knockout (A1−) mouse brains were cultured in vitro. Oligomeric Aβ42 (0.5 μM) in serum-free DMEM/F-12 (50:50) medium containing 10 μg/ml BSA was added to the culture and the culture was incubated for 0, 3, 6, 12 or 18 hours. The remaining Aβ levels (1+2+3+4mers) in the media were analyzed by western blot analysis.
Clearance of oAβ in WT microglia and WT microglia pretreated with the ACAT1-selective inhibitor K604 was also determined.

[6] = target: mouse ACAT1 (Mus musculus (Mouse), UniProt Q61263); assay: ACAT1 western blot in NIH-3T3 fibroblasts transfected with microRNA; type: cell-based; conditions: 48 hours post-transfection, GFP-positive cells
Excerpt: NIH-3T3 mouse fibroblasts were transiently transfected with one of several rAAV vectors encoding EmGFP and microRNA (miR) #52, #53, #54 or #55. Forty-eight hours post-transfection, GFP-positive cells were harvested by FACS. GFP-positive cells were washed then lysed in 10% SDS and syringe homogenized. Twenty microgram of protein per sample was subjected to SDS-PAGE. After western blot analysis, bands were quantified with ImageJ. ACAT1 intensity was normalized to GAPDH as a loading control and expressed as relative intensity.
Four different siRNA molecules (#52-#55; SEQ ID NOs:37-40; Table 3) targeting the mouse Acat1 gene were inserted into an endogenous mouse microRNA (miR) scaffold using Invitrogen's RNAi design tool. The artificial miRs were ligated into the mammalian expression vector pcDNA6.2-GW/EmGFP-miR. These. […] The miRs were delivered to the cells using a standard cDNA transfection protocol.

[7] = target: human ACAT2 (Homo sapiens (Human), UniProt O75908); conditions: read-out: IC50 hACAT-2; cited from earlier work
Chain of human ACAT2 (O75908 whole entry): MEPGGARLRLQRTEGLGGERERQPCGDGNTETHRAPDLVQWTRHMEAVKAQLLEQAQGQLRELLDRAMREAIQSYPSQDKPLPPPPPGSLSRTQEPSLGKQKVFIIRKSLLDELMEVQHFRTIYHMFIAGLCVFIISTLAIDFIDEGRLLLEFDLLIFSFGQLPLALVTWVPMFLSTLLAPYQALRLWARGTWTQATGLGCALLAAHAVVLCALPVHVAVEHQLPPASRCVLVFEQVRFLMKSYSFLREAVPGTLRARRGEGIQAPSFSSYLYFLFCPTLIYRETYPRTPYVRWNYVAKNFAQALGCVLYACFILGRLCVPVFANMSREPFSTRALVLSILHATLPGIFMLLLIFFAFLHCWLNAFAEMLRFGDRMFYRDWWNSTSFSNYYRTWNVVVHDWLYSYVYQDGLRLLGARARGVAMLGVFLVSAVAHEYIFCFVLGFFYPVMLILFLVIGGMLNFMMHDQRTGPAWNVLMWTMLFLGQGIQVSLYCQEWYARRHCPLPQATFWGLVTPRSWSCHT

Q: Which results are given for `CC(C)[C@@H](O)CC[C@@H](C)[C@H]1CC[C@H]2[C@@H]3CC=C4C[C@@H](O)CC[C@]4(C)[C@H]3CC[C@]12C` [24SOH, 24S-hydroxycholesterol]?
A: HMGR protein content ([1]; 1 μM, within 3 hours): rapidly decreased; hAPP protein content ([1]; 1 μM, within 3 hours): rapidly decreased; hAPP mRNA level ([1]; 1-5 μM): without affecting; hAPP protein content ([1]; 1-5 μM): rapid decline

Q: For `CC(=O)N[C@@H](CC(C)C)C(=O)N[C@H](C(=O)N[C@H](C=O)CCCCN)C(C)C` [Ac-LVK-CHO] (Ac-Leu-Val-Lys-aldehyde), which “difference in oAβ42 degradation between WT and A1-microglia” value [2] is on record?
A: The value was “abolished”.

Q: What does the source list for `CC(C)c1cc(C(C)C)c(CC(=O)NS(=O)(=O)Oc2c(C(C)C)cccc2C(C)C)c(C(C)C)c1` [CI 1011]?
A: amyloid plaques ([3]; mouse): significantly reduced; cognitive deficits ([3]; mouse): rescued; mature/immature ratio of hAPP ([3]; mouse): decreases

Q: What does the source list for `CCCCCCCC[C@H](SCCCCCC)C(=O)Nc1c(SC)cc(C)nc1SC` [CP-113,818]?
A: spatial learning ([4]; mouse, in vivo): slightly improved; ectodomain shedding of endogenous APP in the brain ([4]; nontransgenic littermates): reduced; reduction of accumulation of amyloid plaques ([4]; two months of treatment): 88%-99%; reduction of membrane/insoluble Amyloid β levels ([4]; two months of treatment): 83%-96%; processing of both human APP and mouse APP [3]: inhibits; amyloid plaques ([3]; mouse): significantly reduced; cognitive deficits ([3]; mouse): rescued

Q: What does the source list for `CSc1cc(C)nc(SC)c1NC(=O)CN1CCN(CCSc2nc3ccccc3[nH]2)CC1` [K-604]?
A: enhancement of ability to clear oAβ42 from the medium [5]: up to 65%; oAβ degradation in microglia [5]: promotes oAβ degradation

Q: Which “Relative Intensity (ACAT1 normalized to GAPDH)” value [6] does the source give for “miR Negative Control: negative control miR 5′-TACTGCGCGTGGAGACG-3′ (SEQ ID NO:46), matches no known vertebrate gene (chemistry not given here)” here?
A: Its value is 1.02.

Q: Which IC50 [7] does the source give for saucerneol B here?
A: Its IC50 is 124 µM.
